According to patent US20250002460A1, “SORTILIN INHIBITORS” (SORTINA PHARMA AB, priority 2021, published 2025):

Legend:
[1] = tested on: MDA-MB-231 breast cancer cell line; test: Secondary sphere formation assay in MDA-MB-231; assay type: cell-based; settings: 48 hours; for progranulin induced secondary sphere formation: MDA-MB-231, in combination with 500 nM progranulin; for baseline sphere formation, compound used alone: MDA-MB-231, without progranulin
Protocol: (§1) C-terminal Progranulin (progranulin) (Casio, peptide sequence: […], SEQ ID NO: 5) were reconstituted in sterile PBS upon delivery, aliquoted and stored at −20° C. Working stock concentrations were achieved by dilution in culture media. […] 5% CO2 and 21% O2 before performing the primary followed by secondary sphere formation assay.
(§2) The sphere formation assay was performed as described previously (Mammary Gland Biol Neoplasia, 2012, 17(2): 111-117). Briefly, single cell suspensions were obtained following treatment with respective sortilin inhibitors SI1, SI5, SI8, SI25, SI32, SI39, SI51 and SI62 of the invention and seeded in phenol red-free DMEM/F-12 (Gibco®, Life Technologies), supplemented with 1% B27 supplement (Fisher Scientific, Invitrogen), 1% P/S and 20 ng/ml EGF (BD Biosciences) onto non-adherent polyhema-coated plates. After cultivation for five days, single cell suspensions were obtained from the primary spheres and seeded again in phenol red-free DMEM/F-12 supplemented with 1% B27 supplement, 1% P/S and 20 ng/ml EGF onto non-adherent polyhema-coated plates for 5-7 days. Subsequently, spheres greater than 50 μm in diameter were counted manually in the microscope.

[2] = tested on: colon cancer cell line HT-29; test: Sphere formation assay in HT-29; assay type: cell-based; settings: HT-29, FIG. 5
Protocol: as §1, §2

[3] = tested on: MDA-MB-231 xenograft; test: MDA-MB-231 xenograft in vivo model, metastasis assessment; design: species or system NOD SCID gamma mice; settings: compared to vehicle control; RC3 5-50 μg/day/mouse in drinking water for 21 days
Protocol: Luciferase tagged MDA-MB-231 cells were injected at a concentration of 0.2×10^6 cells subcutaneously into two sites of the flank of NOD SCID gamma mice (Taconic, Denmark). Cells were prepared in a 60% mixture of matrigel (growth factor reduced, BD Bioscience) and 40% complete media. The size of the tumors were determined by calliper measurement of the subcutaneous tumor mass two times per week and tumor volume was calculated according to the formula volume=(length×(width)^2/2). Assessments of metastasis were performed using the IVIS® whole body imager (PerkinElmer) based on luciferase expression from stably transfected cell lines.

[4] = target: T1, human sortilin (sSORT) (Homo sapiens, UniProt Q99523); test: Neurotensin competitive fluorescence polarization binding assay (FPA); settings: mean IC50 values for sortilin inhibitors, IC50 (nM), 100 nM sSORT, 10 nM Neurotensin-Ahx-FITC, 1 h room temperature
T1 sequence (Q99523 78-756 limits assumed): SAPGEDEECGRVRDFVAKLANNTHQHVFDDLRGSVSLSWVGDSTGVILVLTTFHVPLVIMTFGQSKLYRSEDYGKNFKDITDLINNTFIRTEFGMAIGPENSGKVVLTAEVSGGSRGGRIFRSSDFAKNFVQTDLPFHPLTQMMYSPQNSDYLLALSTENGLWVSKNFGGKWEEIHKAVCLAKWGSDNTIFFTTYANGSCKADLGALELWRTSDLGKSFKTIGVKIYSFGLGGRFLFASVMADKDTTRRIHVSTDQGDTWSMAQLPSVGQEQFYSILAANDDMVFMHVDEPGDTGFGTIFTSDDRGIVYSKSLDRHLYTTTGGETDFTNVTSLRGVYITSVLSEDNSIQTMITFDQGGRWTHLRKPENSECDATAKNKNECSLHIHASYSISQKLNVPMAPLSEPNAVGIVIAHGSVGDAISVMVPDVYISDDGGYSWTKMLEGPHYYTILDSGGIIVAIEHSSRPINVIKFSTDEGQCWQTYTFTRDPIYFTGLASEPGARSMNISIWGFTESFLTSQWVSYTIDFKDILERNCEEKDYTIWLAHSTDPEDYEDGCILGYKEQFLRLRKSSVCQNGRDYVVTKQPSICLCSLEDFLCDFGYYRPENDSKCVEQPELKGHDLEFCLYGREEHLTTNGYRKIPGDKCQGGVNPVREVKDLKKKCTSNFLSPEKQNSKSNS
Protocol: Fresh 0.1% bovine serum albumin (BSA) was added to the assay buffer to obtain the final concentration: 50 mM HEPES, pH 7.4; 100 mM NaCl; 2.0 mM CaCl2; 0.1% BSA; 0.1% TWEEN® 20. The sortilin inhibitors of the invention and reference compounds (see Table 1) analyzed in the screen and neurotensin (used as an assay control) were serially diluted in ten different concentrations in assay buffer. In each well of a Nunc® MaxiSorp™ 384-well plate (Sigma Aldrich), 100 nM sSORT was mixed with pre-diluted sortilin inhibitors and 10 nM Neurotensin-Ahx-FITC in assay buffer adjusted to contain 1% DMSO in a final volume of 20 μl. The plate was then briefly centrifuged prior to 1 h incubation at room temperature in the dark.

[5] = tested on: melanoma cell line SK-MEL-30; test: Sphere formation assay in SK-MEL-30; assay type: cell-based; settings: SK-MEL-30, FIG. 6
Protocol: as §1, §2

SMILES | progranulin induced secondary sphere formation [1] | baseline sphere formation, compound used alone [1] | colon cancer cell sphere formation [2] | lung metastasis / metastasis formation [3] | IC50 [4] [nM] | melanoma cancer cell sphere formation [5]
CC(C)(C)/C=C/C(NC(=O)c1ccc(Oc2ccccc2)nc1)C(=O)O (racemic) [SI5, (E)-5,5-dimethyl-2-(6-phenoxynicotinoylamino)-3-hexenoic acid] | reduced sphere formation | reduced baseline sphere formation | reduced | reduced metastasis formation | 17 | 
Cc1cccc(NC(=O)c2ccc(C(F)(F)F)cc2C(=O)O)n1 [RC3, 2-(N-6-Methyl-2-pyridylcarbamoyl)-5-(trifluoromethyl)benzoic acid, reference compound] | reduced sphere formation | increased sphere formation |  | induced lung metastasis |  | 
CC(C)(C)/C=C/C(NC(=O)c1cc(Cl)c[nH]1)C(=O)O (stereo not shown) [SI8, (E)-2-(4-chloro-2-pyrrolylcarbonylamino)-5,5-dimethyl-3-hexenoic acid] | reduced sphere formation | reduced baseline sphere formation |  |  | 43 | 
CC(C)(C)/C=C/C(NC(=O)c1cccc(-n2ccnc2)c1)C(=O)O (stereo not shown) [SI25, (E)-5,5-dimethyl-2[m-(1-imidazolyl)benzoylamino]-3-hexenoic acid] |  | reduced baseline sphere formation |  |  | 31 | 
CC(C)(C)/C=C/C(NC(=O)c1cc(Cl)cs1)C(=O)O (stereo not shown) [SI32, (E)-2-(4-chloro-2-thienylcarbonylamino)-5,5-dimethyl-3-hexenoic acid] |  | reduced baseline sphere formation |  |  | 52 | 
CC(C)(C)/C=C/C(NC(=O)c1ccc(OCc2ccccc2)nc1)C(=O)O (stereo not shown) [SI39, (E)-2-[6-(benzyloxy)nicotinoylamino]-5,5-dimethyl-3-hexenoic acid] |  | reduced baseline sphere formation |  |  | 65 | 
CC(C)(C)/C=C/C(NC(=O)c1ccc(-c2cccs2)cc1)C(=O)O (stereo not shown) [SI51, (E)-5,5-dimethyl-2-[p-(2-thienyl)benzoylamino]-3-hexenoic acid] |  | reduced baseline sphere formation |  |  | 80 | 
CC(C)(C)/C=C/C(NC(=O)c1cc(Cl)c(Cl)s1)C(=O)O (stereo not shown) [SI62, (E)-2-(4,5-dichloro-2-thienylcarbonylamino)-5,5-dimethyl-3-hexenoic acid] |  | reduced baseline sphere formation |  |  | 61 | reduced
